Legend:
[1] = target: T1, Potassium voltage-gated channel subfamily A member 3 (Homo sapiens, UniProt P22001); test: cell-based; parameters: species or system Blood
[2] = target: T1, Potassium voltage-gated channel subfamily A member 3; parameters: species or system Blood
[3] = target: T1, Potassium voltage-gated channel subfamily A member 3; assay type: cell-based, CHO-K1

T1 sequence (P22001 whole entry): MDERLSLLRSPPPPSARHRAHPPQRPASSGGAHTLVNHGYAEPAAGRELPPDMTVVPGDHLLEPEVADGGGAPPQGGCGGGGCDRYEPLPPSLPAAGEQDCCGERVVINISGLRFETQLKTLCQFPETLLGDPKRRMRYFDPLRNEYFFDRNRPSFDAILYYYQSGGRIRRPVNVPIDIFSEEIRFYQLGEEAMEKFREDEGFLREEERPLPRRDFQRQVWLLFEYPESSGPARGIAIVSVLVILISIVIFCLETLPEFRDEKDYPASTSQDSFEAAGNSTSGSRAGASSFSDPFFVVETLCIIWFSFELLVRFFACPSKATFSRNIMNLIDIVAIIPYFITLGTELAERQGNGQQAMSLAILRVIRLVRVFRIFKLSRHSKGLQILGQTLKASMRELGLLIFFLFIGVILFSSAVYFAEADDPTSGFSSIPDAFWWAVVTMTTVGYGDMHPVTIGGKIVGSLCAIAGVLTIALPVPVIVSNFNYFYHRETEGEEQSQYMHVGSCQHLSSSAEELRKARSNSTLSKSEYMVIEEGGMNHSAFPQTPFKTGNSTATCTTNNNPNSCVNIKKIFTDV

Work on `CC[C@H](C)[C@@H]1NC(=O)[C@@H](NC(=O)[C@H](CCCCN)NC(=O)[C@@H](N)CCCNC(=N)N)CSSC[C@@H](C(=O)O)NC(=O)[C@H]([C@@H](C)O)NC(=O)CNC(=O)[C@@H]2CSSC[C@@H]3NC(=O)[C@H](CCC(N)=O)NC(=O)[C@H](Cc4ccccc4)NC(=O)[C@H](C)NC(=O)[C@H]([C@@H](C)O)NC(=O)[C@H](CSSC[C@H](NC(=O)[C@H](Cc4ccccc4)NC(=O)[C@H](CO)NC(=O)[C@H](CC(C)C)NC(=O)[C@H](CCCNC(=N)N)NC(=O)[C@H](Cc4ccc(O)cc4)NC(=O)[C@H](CCCCN)NC(=O)[C@H](CCSC)NC(=O)[C@H](CO)NC(=O)[C@H](Cc4cnc[nH]4)NC(=O)[C@H](CCCCN)NC3=O)C(=O)N[C@@H](CCCNC(=N)N)C(=O)N[C@@H](CCCCN)C(=O)N[C@@H]([C@@H](C)O)C(=O)N2)NC(=O)[C@H](CCCNC(=N)N)NC(=O)[C@H](CO)NC(=O)[C@H](CCCCN)NC(=O)[C@@H]2CCCN2C(=O)[C@H]([C@@H](C)CC)NC(=O)[C@H]([C@@H](C)O)NC(=O)[C@H](CC(=O)O)NC1=O` yielded an IC50 [1] of 99 pM, an IC50 [2] of 94 pM and an IC50 [3] of 146 pM.
`CC[C@H](C)[C@@H]1NC(=O)[C@@H](NC(=O)[C@H](CO)NC(=O)[C@@H](N)CCCNC(=N)N)CSSC[C@@H](C(=O)O)NC(=O)[C@H]([C@@H](C)O)NC(=O)[C@H](CCCNC(=N)N)NC(=O)[C@@H]2CSSC[C@@H]3NC(=O)[C@H](CCC(N)=O)NC(=O)[C@H](Cc4ccccc4)NC(=O)[C@H](C)NC(=O)[C@H]([C@@H](C)O)NC(=O)[C@H](CSSC[C@H](NC(=O)[C@H](Cc4ccccc4)NC(=O)[C@H](CO)NC(=O)[C@H](CC(C)C)NC(=O)[C@H](CCCNC(=N)N)NC(=O)[C@H](Cc4ccc(O)cc4)NC(=O)[C@H](CCCCN)NC(=O)[C@H](CCSC)NC(=O)[C@H](CO)NC(=O)[C@H](Cc4cnc[nH]4)NC(=O)[C@H](CCCCN)NC3=O)C(=O)N[C@@H](CCCNC(=N)N)C(=O)N[C@@H](CCCCN)C(=O)N[C@@H]([C@@H](C)O)C(=O)N2)NC(=O)[C@H](CCCNC(=N)N)NC(=O)[C@H](CO)NC(=O)[C@H](CCCCN)NC(=O)[C@@H]2CCCN2C(=O)[C@H]([C@@H](C)CC)NC(=O)[C@H]([C@@H](C)O)NC(=O)[C@H](CC(=O)O)NC1=O` gave an IC50 [1] of 89 pM, an IC50 [2] of 223 pM and an IC50 [3] of 221 pM.
With `CC[C@H](C)[C@@H]1NC(=O)[C@@H](NC(=O)[C@H](CO)NC(=O)[C@@H](N)CCCNC(=N)N)CSSC[C@@H](C(=O)O)NC(=O)[C@H](CCCNC(=N)N)NC(=O)CNC(=O)[C@@H]2CSSC[C@@H]3NC(=O)[C@H](CCC(N)=O)NC(=O)[C@H](Cc4ccccc4)NC(=O)[C@H](C)NC(=O)[C@H]([C@@H](C)O)NC(=O)[C@H](CSSC[C@H](NC(=O)[C@H](Cc4ccccc4)NC(=O)[C@H](CO)NC(=O)[C@H](CC(C)C)NC(=O)[C@H](CCCNC(=N)N)NC(=O)[C@H](Cc4ccc(O)cc4)NC(=O)[C@H](CCCCN)NC(=O)[C@H](CCSC)NC(=O)[C@H](CO)NC(=O)[C@H](Cc4cnc[nH]4)NC(=O)[C@H](CCCCN)NC3=O)C(=O)N[C@@H](CCCNC(=N)N)C(=O)N[C@@H](CCCCN)C(=O)N[C@@H]([C@@H](C)O)C(=O)N2)NC(=O)[C@H](CCCNC(=N)N)NC(=O)[C@H](CO)NC(=O)[C@H](CCCCN)NC(=O)[C@@H]2CCCN2C(=O)[C@H]([C@@H](C)CC)NC(=O)[C@H]([C@@H](C)O)NC(=O)[C@H](CC(=O)O)NC1=O` the IC50 [1] was 357 pM, the IC50 [2] was 475 pM and the IC50 [3] was 191 pM.
For `CC[C@H](C)[C@@H]1NC(=O)[C@@H](NC(=O)[C@H](CO)NC(=O)[C@@H](N)CCCCN)CSSC[C@@H](C(=O)O)NC(=O)[C@H]([C@@H](C)O)NC(=O)CNC(=O)[C@@H]2CSSC[C@@H]3NC(=O)[C@H](CCC(N)=O)NC(=O)[C@H](Cc4ccccc4)NC(=O)[C@H](C)NC(=O)[C@H]([C@@H](C)O)NC(=O)[C@H](CSSC[C@H](NC(=O)[C@H](Cc4ccccc4)NC(=O)[C@H](CO)NC(=O)[C@H](CC(C)C)NC(=O)[C@H](CCCNC(=N)N)NC(=O)[C@H](Cc4ccc(O)cc4)NC(=O)[C@H](CCCCN)NC(=O)[C@H](CCSC)NC(=O)[C@H](CO)NC(=O)[C@H](Cc4cnc[nH]4)NC(=O)[C@H](CCCCN)NC3=O)C(=O)N[C@@H](CCCNC(=N)N)C(=O)N[C@@H](CCCCN)C(=O)N[C@@H]([C@@H](C)O)C(=O)N2)NC(=O)[C@H](CCCNC(=N)N)NC(=O)[C@H](CO)NC(=O)[C@H](CCCCN)NC(=O)[C@@H]2CCCN2C(=O)[C@H]([C@@H](C)CC)NC(=O)[C@H]([C@@H](C)O)NC(=O)[C@H](CC(=O)O)NC1=O`, the IC50 [1] was 36 pM, the IC50 [2] was 73 pM and the IC50 [3] was 154 pM.
In the case of `CC[C@H](C)[C@@H]1NC(=O)[C@@H](NC(=O)[C@H](CO)NC(=O)[C@@H](N)CCCNC(=N)N)CSSC[C@@H](C(=O)O)NC(=O)[C@H]([C@@H](C)O)NC(=O)CNC(=O)[C@@H]2CSSC[C@@H]3NC(=O)[C@H](CCC(N)=O)NC(=O)[C@H](Cc4ccccc4)NC(=O)[C@H](C)NC(=O)[C@H]([C@@H](C)O)NC(=O)[C@H](CSSC[C@H](NC(=O)[C@H](Cc4ccccc4)NC(=O)[C@H](CO)NC(=O)[C@H](CC(C)C)NC(=O)[C@H](CCCNC(=N)N)NC(=O)[C@H](Cc4ccc(O)cc4)NC(=O)[C@H](CCCCN)NC(=O)[C@H](CCSC)NC(=O)[C@H](CO)NC(=O)[C@H](Cc4cnc[nH]4)NC(=O)[C@H](CCCCN)NC3=O)C(=O)N[C@@H](CCCNC(=N)N)C(=O)N[C@@H](CCCCN)C(=O)N[C@@H]([C@@H](C)O)C(=O)N2)NC(=O)[C@H](CCCNC(=N)N)NC(=O)[C@H](CO)NC(=O)[C@H](CCCCN)NC(=O)[C@@H]2CCCN2C(=O)[C@H]([C@@H](C)CC)NC(=O)[C@H]([C@@H](C)O)NC(=O)[C@H](CCCCN)NC1=O`, the IC50 [1] is reported as > 100000 pM, the IC50 [2] is reported as > 100000 pM and the IC50 [3] is reported as > 3330 pM.
Compound `CC[C@H](C)[C@@H]1NC(=O)[C@@H](NC(=O)[C@H](CO)NC(=O)[C@@H](N)CCCNC(=N)N)CSSC[C@@H](C(=O)O)NC(=O)[C@H]([C@@H](C)O)NC(=O)CNC(=O)[C@@H]2CSSC[C@@H]3NC(=O)[C@H](CCC(N)=O)NC(=O)[C@H](Cc4ccccc4)NC(=O)[C@H](C)NC(=O)[C@H]([C@@H](C)O)NC(=O)[C@H](CSSC[C@H](NC(=O)[C@H](Cc4ccccc4)NC(=O)[C@H](CO)NC(=O)[C@H](CC(C)C)NC(=O)[C@H](CCCNC(=N)N)NC(=O)[C@H](Cc4ccc(O)cc4)NC(=O)[C@H](CCCCN)NC(=O)[C@H](CCSC)NC(=O)[C@H](CO)NC(=O)[C@H](Cc4c[nH]cn4)NC(=O)[C@H](CCCCN)NC3=O)C(=O)N[C@@H](CCCNC(=N)N)C(=O)N[C@@H](CCCCN)C(=O)N[C@@H]([C@@H](C)O)C(=O)N2)NC(=O)[C@H](CCCNC(=N)N)NC(=O)[C@H](CO)NC(=O)[C@H](CCCCN)NC(=O)[C@@H]2CCCN2C(=O)[C@H]([C@@H](C)CC)NC(=O)[C@H](CCCCN)NC(=O)[C@H](CC(=O)O)NC1=O` has an IC50 [1] of 117 pM, an IC50 [2] of 210 pM and an IC50 [3] of 129 pM.
Work on `CC[C@H](C)[C@@H]1NC(=O)[C@@H](NC(=O)[C@H](CO)NC(=O)[C@@H](N)CCCNC(=N)N)CSSC[C@@H](C(=O)O)NC(=O)[C@H]([C@@H](C)O)NC(=O)CNC(=O)[C@@H]2CSSC[C@@H]3NC(=O)[C@H](CCC(N)=O)NC(=O)[C@H](Cc4ccccc4)NC(=O)[C@H](C)NC(=O)[C@H]([C@@H](C)O)NC(=O)[C@H](CSSC[C@H](NC(=O)[C@H](Cc4ccccc4)NC(=O)[C@H](CO)NC(=O)[C@H](CC(C)C)NC(=O)[C@H](CCCNC(=N)N)NC(=O)[C@H](Cc4ccc(O)cc4)NC(=O)[C@H](CCCCN)NC(=O)[C@H](CCSC)NC(=O)[C@H](CO)NC(=O)[C@H](Cc4cnc[nH]4)NC(=O)[C@H](CCCCN)NC3=O)C(=O)N[C@@H](CCCNC(=N)N)C(=O)N[C@@H](CCCCN)C(=O)N[C@@H]([C@@H](C)O)C(=O)N2)NC(=O)[C@H](CCCNC(=N)N)NC(=O)[C@H](CO)NC(=O)[C@H](CCCCN)NC(=O)[C@@H]2CCCN2C(=O)[C@H](CCCCN)NC(=O)[C@H]([C@@H](C)O)NC(=O)[C@H](CC(=O)O)NC1=O` yielded an IC50 [1] of 4670 pM, an IC50 [2] of 13500 pM and an IC50 [3] of 561 pM.
`CC[C@H](C)[C@@H]1NC(=O)[C@@H](NC(=O)[C@H](CO)NC(=O)[C@@H](N)CCCNC(=N)N)CSSC[C@@H](C(=O)O)NC(=O)[C@H]([C@@H](C)O)NC(=O)CNC(=O)[C@@H]2CSSC[C@@H]3NC(=O)[C@H](CCC(N)=O)NC(=O)[C@H](Cc4ccccc4)NC(=O)[C@H](C)NC(=O)[C@H]([C@@H](C)O)NC(=O)[C@H](CSSC[C@H](NC(=O)[C@H](Cc4ccccc4)NC(=O)[C@H](CO)NC(=O)[C@H](CC(C)C)NC(=O)[C@H](CCCNC(=N)N)NC(=O)[C@H](Cc4ccc(O)cc4)NC(=O)[C@H](CCCCN)NC(=O)[C@H](CCSC)NC(=O)[C@H](CO)NC(=O)[C@H](Cc4cnc[nH]4)NC(=O)[C@H](CCCCN)NC3=O)C(=O)N[C@@H](CCCNC(=N)N)C(=O)N[C@@H](CCCCN)C(=O)N[C@@H]([C@@H](C)O)C(=O)N2)NC(=O)[C@H](CCCNC(=N)N)NC(=O)[C@H](CCCCN)NC(=O)[C@H](CCCCN)NC(=O)[C@@H]2CCCN2C(=O)[C@H]([C@@H](C)CC)NC(=O)[C@H]([C@@H](C)O)NC(=O)[C@H](CC(=O)O)NC1=O` gave an IC50 [1] of 52 pM, an IC50 [2] of 82 pM and an IC50 [3] of 184 pM.
For `CC[C@H](C)[C@@H]1NC(=O)[C@@H](NC(=O)[C@H](CO)NC(=O)[C@@H](N)CCCNC(=N)N)CSSC[C@@H](C(=O)O)NC(=O)[C@H]([C@@H](C)O)NC(=O)CNC(=O)[C@@H]2CSSC[C@@H]3NC(=O)[C@H](CCC(N)=O)NC(=O)[C@H](Cc4ccccc4)NC(=O)[C@H](C)NC(=O)[C@H](CCCCN)NC(=O)[C@H](CSSC[C@H](NC(=O)[C@H](Cc4ccccc4)NC(=O)[C@H](CO)NC(=O)[C@H](CC(C)C)NC(=O)[C@H](CCCNC(=N)N)NC(=O)[C@H](Cc4ccc(O)cc4)NC(=O)[C@H](CCCCN)NC(=O)[C@H](CCSC)NC(=O)[C@H](CO)NC(=O)[C@H](Cc4cnc[nH]4)NC(=O)[C@H](CCCCN)NC3=O)C(=O)N[C@@H](CCCNC(=N)N)C(=O)N[C@@H](CCCCN)C(=O)N[C@@H]([C@@H](C)O)C(=O)N2)NC(=O)[C@H](CCCNC(=N)N)NC(=O)[C@H](CO)NC(=O)[C@H](CCCCN)NC(=O)[C@@H]2CCCN2C(=O)[C@H]([C@@H](C)CC)NC(=O)[C@H]([C@@H](C)O)NC(=O)[C@H](CC(=O)O)NC1=O`, the IC50 [1] was 257 pM, the IC50 [2] was 363 pM and the IC50 [3] was 154 pM.
